According to ChEMBL document CHEMBL5523719, “Structure-activity relationship study of new carbazole sulfonamide derivatives as anticancer agents with dual-target mechanism” (Eur J Med Chem, 2024):
Calls of active or inactive are those of the source. No cut-off for these calls is given here.

Experiments:
[1] = system: MCF7; test: Induction of cell cycle arrest in human MCF7 cells assessed as accumulation of cells at G2/M phase at 500 nM measured after 24 hrs by flow cytometry (reference value: 22.84%); type: functional
[2] = system: MCF7; test: Induction of apoptosis in human MCF7 cells assessed as late apoptotic cells at 50 nM measured after 48 hrs by AnnexinV/PI double staining assays (reference value: 2.60%); type: functional
[3] = system: MCF7; test: Induction of apoptosis in human MCF7 cells assessed as early apoptotic cells at 6.25 nM measured after 48 hrs by AnnexinV/PI double staining assays (reference value: 5.32%); type: functional
[4] = system: MCF7; test: Induction of apoptosis in human MCF7 cells assessed as viable cells at 6.25 nM measured after 48 hrs by AnnexinV/PI double staining assays (reference value: 91.20%); type: functional; settings: read-out: Activity
[5] = system: MCF7; test: Induction of apoptosis in human MCF7 cells assessed as karyolysis at 1 nM measured after 24 hrs by fluorescent microscopy; type: functional, cell-based
[6] = system: MCF7; test: Induction of apoptosis in human MCF7 cells assessed as late apoptotic cells at 6.25 nM measured after 48 hrs by AnnexinV/PI double staining assays (reference value: 2.60%); type: functional
[7] = system: NCI/ADR-RES; test: Antiproliferation activity against human MCF7/ADR cells measured after 72 hrs incubation by MTT assay; type: functional, cell-based
[8] = system: MCF7; test: Induction of apoptosis in human MCF7 cells assessed as late apoptotic cells at 25 nM measured after 48 hrs by AnnexinV/PI double staining assays (reference value: 2.60%); type: functional
[9] = system: MCF7; test: Induction of cell cycle arrest in human MCF7 cells assessed as increase in cyclin B1 protein expression at […] by Western blot analysis; type: functional, cell-based; settings: dose lower 12.5 µM
[10] = system: MCF7; test: Induction of cell cycle arrest in human MCF7 cells assessed as accumulation of cells at G0/G1 phase at 25 nM measured after 24 hrs by flow cytometry (reference value: 61.73%); type: functional
[11] = target: T1, Tubulin (Homo sapiens) (UniProt P68371+Q9H4B7+P0DPH7+P68366+Q13509+Q71U36+P04350+Q3ZCM7+P07437+P68363+Q9BQE3+Q6PEY2+Q13885+Q9BVA1+Q9BUF5); test: In vitro inhibition of microtubule (unknown origin) assembly at 10 uM; type: protein-complex assay
[12] = system: MCF7; test: Induction of cell cycle arrest in human MCF7 cells assessed as accumulation of cells at G2/M phase at 4 nM measured after 24 hrs by flow cytometry (reference value: 22.84%); type: functional
[13] = system: MCF7; test: Induction of apoptosis in human MCF7 cells assessed as early apoptotic cells at 50 nM measured after 48 hrs by AnnexinV/PI double staining assays (reference value: 5.32%); type: functional
[14] = system: MCF7; test: Induction of cell cycle arrest in human MCF7 cells assessed as accumulation of cells at G0/G1 phase at 100 nM measured after 24 hrs by flow cytometry (reference value: 61.73%); type: functional
[15] = system: MCF7; test: Induction of apoptosis in human MCF7 cells assessed as multinuclear cells at 5 nM measured after 24 hrs by fluorescent microscopy; type: functional
[16] = system: MCF7; test: Induction of apoptosis in human MCF7 cells assessed as early apoptotic cells at 12.5 nM measured after 48 hrs by AnnexinV/PI double staining assays (reference value: 5.32%); type: functional
[17] = target: Tubulin beta (Homo sapiens) (UniProt P68371+Q9H4B7+Q13509+P04350+Q3ZCM7+P07437+Q13885+Q9BVA1+Q9BUF5+A6NNZ2); test: Binding affinity to beta-tubulin colchicine binding site in human MCF7 cells assessed as inhibition of EBI-beta-tubulin adduct band formation preincubated for 2 hrs followed by EBI addition measured after 2 hrs by EBI competition based Western blotting analysis; type: cell-based; settings: dose 12.5-100 nM
[18] = system: MIA PaCa-2; test: Antiproliferation activity against human MIA PaCa-2 cells measured after 72 hrs incubation by MTT assay; type: functional, cell-based; settings: MIA PaCa-2, 72 h
[19] = target: T1, Tubulin (Homo sapiens); test: Inhibition of microtubule assembly in human MCF7 cells assessed as disrupted microtubule network at 50 uM measured after 24 hrs incubation by anti-alpha-tubulin antibody (green) and Hoechst 33342 (blue) stained nuclei were obtained under microscopy; type: cell-based
[20] = system: MCF7; test: Induction of apoptosis in human MCF7 cells assessed as necrotic cells at 50 nM measured after 48 hrs by AnnexinV/PI double staining assays (reference value: 0.89%); type: functional
[21] = system: NCI-H460; test: Antiproliferation activity against human NCI-H460 cells measured after 72 hrs incubation by MTT assay; type: functional, cell-based; settings: NCI-H460, 72 h
[22] = system: MCF7; test: Induction of cell cycle arrest in human MCF7 cells assessed as accumulation of cells at G2/M phase at 100 nM measured after 24 hrs by flow cytometry (reference value: 22.84%); type: functional
[23] = system: MCF7; test: Antiproliferation activity against human MCF7 cells measured after 72 hrs incubation by MTT assay; type: functional, cell-based; settings: MCF7, 72 h
[24] = system: MCF7; test: Induction of apoptosis in human MCF7 cells assessed as necrotic cells at 12.5 nM measured after 48 hrs by AnnexinV/PI double staining assays (reference value: 0.89%); type: functional
[25] = system: MCF7; test: Induction of cell cycle arrest in human MCF7 cells assessed as increase in phosphorylation of histone H3 at […] by Western blot analysis; type: functional, cell-based; settings: dose lower 12.5 µM
[26] = system: MCF7; test: Induction of apoptosis in human MCF7 cells assessed as viable cells at 12.5 nM measured after 48 hrs by AnnexinV/PI double staining assays (reference value: 91.20%); type: functional; settings: read-out: Activity
[27] = target: DNA topoisomerase 2-alpha (Homo sapiens) (UniProt P11388); test: Inhibition of human DNA topoisomerase 2 assessed as relaxation of supercoiled pBR322 DNA as substrate at 20 uM incubated for 30 mins by gel staining based electrophoresis analysis
[28] = system: MCF7; test: Induction of apoptosis in human MCF7 cells assessed as karyopyknosis at 5 nM measured after 24 hrs by fluorescent microscopy; type: functional, cell-based
[29] = system: MCF7; test: Induction of apoptosis in human MCF7 cells assessed as early apoptotic cells at 25 nM measured after 48 hrs by AnnexinV/PI double staining assays (reference value: 5.32%); type: functional
[30] = target: T1, Tubulin (Homo sapiens); test: Inhibition of microtubule assembly in human HepG2 cells assessed as disrupted microtubule network at 50 uM measured after 24 hrs incubation by anti-alpha-tubulin antibody (green) and Hoechst 33342 (blue) stained nuclei were obtained under microscopy; type: cell-based
[31] = system: HMEC-1; test: Angiogenic activity against human HMEC-1 cells assessed as decrease in vascular area measured after 48 hrs by Endothelial tube formation assay; type: functional, cell-based; settings: dose 1-100 nM
[32] = system: MCF7; test: Induction of apoptosis in human MCF7 cells assessed as late apoptotic cells at 12.5 nM measured after 48 hrs by AnnexinV/PI double staining assays (reference value: 2.60%); type: functional
[33] = system: MCF7; test: Induction of apoptosis in human MCF7 cells assessed as viable cells at 50 nM measured after 48 hrs by AnnexinV/PI double staining assays (reference value: 91.20%); type: functional; settings: read-out: Activity
[34] = system: MCF7; test: Induction of apoptosis in human MCF7 cells assessed as viable cells at 25 nM measured after 48 hrs by AnnexinV/PI double staining assays (reference value: 91.20%); type: functional; settings: read-out: Activity

Sequence of DNA topoisomerase 2-alpha (Homo sapiens) (P11388 whole entry): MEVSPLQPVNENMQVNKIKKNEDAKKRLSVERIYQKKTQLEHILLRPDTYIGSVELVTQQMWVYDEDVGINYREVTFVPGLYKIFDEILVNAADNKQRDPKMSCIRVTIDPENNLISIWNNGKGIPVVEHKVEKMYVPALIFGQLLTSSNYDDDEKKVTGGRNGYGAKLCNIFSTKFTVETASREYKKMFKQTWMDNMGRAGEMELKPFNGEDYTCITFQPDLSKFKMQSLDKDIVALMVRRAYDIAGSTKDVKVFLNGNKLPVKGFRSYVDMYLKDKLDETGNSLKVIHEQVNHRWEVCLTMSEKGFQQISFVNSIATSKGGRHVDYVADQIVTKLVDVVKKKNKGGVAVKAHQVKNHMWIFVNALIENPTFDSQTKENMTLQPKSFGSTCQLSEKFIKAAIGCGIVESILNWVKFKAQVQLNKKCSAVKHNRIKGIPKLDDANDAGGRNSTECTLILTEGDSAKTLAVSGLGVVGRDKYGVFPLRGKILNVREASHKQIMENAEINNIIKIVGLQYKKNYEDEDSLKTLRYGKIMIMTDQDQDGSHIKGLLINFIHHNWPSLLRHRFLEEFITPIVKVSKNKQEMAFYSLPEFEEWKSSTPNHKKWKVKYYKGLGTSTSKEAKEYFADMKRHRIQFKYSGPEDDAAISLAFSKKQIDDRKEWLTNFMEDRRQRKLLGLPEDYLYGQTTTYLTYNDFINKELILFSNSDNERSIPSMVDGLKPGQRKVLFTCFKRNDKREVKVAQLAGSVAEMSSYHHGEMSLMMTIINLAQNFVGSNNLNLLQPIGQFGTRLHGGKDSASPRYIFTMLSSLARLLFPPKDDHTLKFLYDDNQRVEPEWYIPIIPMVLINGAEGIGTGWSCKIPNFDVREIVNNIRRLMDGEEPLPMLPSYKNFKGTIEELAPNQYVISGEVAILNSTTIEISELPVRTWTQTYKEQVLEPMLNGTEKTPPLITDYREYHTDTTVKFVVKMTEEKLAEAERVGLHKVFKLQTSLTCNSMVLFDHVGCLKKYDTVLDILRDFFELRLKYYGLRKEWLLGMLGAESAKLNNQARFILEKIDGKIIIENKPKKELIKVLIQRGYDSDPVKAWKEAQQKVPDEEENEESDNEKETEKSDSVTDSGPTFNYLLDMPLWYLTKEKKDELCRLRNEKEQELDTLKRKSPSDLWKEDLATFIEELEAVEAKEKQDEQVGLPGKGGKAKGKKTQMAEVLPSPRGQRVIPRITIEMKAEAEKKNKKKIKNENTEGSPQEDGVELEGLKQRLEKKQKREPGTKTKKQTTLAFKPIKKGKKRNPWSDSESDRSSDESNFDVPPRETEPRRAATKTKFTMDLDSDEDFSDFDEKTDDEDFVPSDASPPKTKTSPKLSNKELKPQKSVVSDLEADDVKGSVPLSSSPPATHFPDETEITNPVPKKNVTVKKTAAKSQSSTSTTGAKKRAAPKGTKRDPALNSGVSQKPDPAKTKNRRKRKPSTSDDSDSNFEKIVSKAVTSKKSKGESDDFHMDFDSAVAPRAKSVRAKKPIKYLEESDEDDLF

Which results are given for `COc1cc(NS(=O)(=O)c2ccc3c(c2)c2ccc(N)cc2n3C)c(OC)cc1Cl`?
Activity [1]: 53.2%; Activity [2]: 14.69%; Activity [3]: 16.87%; viability at 0.00625 µM [4]: 76.1%; Activity [5]: Active; Activity [6]: 7.06%; IC50 [7]: 1.86 nM; Activity [8]: 14.03%; Activity [9]: Dose-Dependent Effect; Activity [10]: 36.18%; inhibition [11]: Active; Activity [12]: 23.3%; Activity [13]: 50.98%; Activity [14]: 4.32%; Activity [15]: Active; Activity [16]: 26.99%; Activity [17]: Active; IC50 [18]: 13.3 nM; inhibition [19]: Active; Activity [20]: 0.08%; IC50 [21]: 18 nM; Activity [22]: 41.21%; IC50 [23]: 12.2 nM; Activity [24]: 0.14%; Activity [25]: Dose-Dependent Effect; viability at 0.0125 µM [26]: 64.2%; inhibition [27]: inactive; Activity [28]: Active; Activity [29]: 46.14%; inhibition [30]: Active; Activity [31]: Dose-Dependent Effect; Activity [32]: 8.66%; viability at 0.05 µM [33]: 34.2%; viability at 0.025 µM [34]: 39.3%
